Laboratory results from patent publication US7435815B2, “Sulfonylamino-acetic acid derivatives” (Actelion Pharmaceuticals Ltd., priority 2002, dated 2008).

Tests used:
human orexin-1 receptor = biological target: T1, human orexin-1 receptor (Homo sapiens, UniProt O43613); experiment: Intracellular calcium measurements (FLIPR), orexin receptor antagonistic activity, OX1; assay type: cell-based; conditions: CHO cells expressing the human orexin-1 receptor, agonist 10 nM human orexin-A
T1 construct: expressed in transfected cells; host or cells: CHO cells (G418 selection)
T1 sequence (O43613 1-425): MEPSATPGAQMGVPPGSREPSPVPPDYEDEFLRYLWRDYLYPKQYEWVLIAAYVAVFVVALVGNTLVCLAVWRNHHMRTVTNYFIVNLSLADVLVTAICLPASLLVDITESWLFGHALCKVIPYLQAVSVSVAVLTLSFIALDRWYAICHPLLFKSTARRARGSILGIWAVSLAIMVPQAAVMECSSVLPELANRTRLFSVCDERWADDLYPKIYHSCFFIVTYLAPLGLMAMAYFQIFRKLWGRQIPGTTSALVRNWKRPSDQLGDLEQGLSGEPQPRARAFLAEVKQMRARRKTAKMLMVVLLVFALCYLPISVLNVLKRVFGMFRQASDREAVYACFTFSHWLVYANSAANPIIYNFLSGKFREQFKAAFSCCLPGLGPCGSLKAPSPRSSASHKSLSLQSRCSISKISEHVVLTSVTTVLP
Procedure: (§1) The Orexin receptor antagonistic activity of the compounds of formula (I) was determined in accordance with the following experimental method.
(§2) Intracellular Calcium Measurements
(§3) Chinese hamster ovary (CHO) cells expressing the human orexin-1 receptor and the human orexin-2 receptor, respectively, were grown in culture medium (Ham F-12 with L-Glutamine) containing 300 μg/ml G418, 100 U/ml penicillin, 100 μg/ml streptomycin and 10% inactivated foetal calf serum (FCS).
(§4) The cells were seeded at 80,000 cells/well into 96-well black clear bottom sterile plates (Costar) which had been precoated with 1% gelatine in Hanks' Balanced Salt Solution (HBSS). All reagents were from Gibco BRL.
(§5) The seeded plates were incubated overnight at 37° C. in 5% CO2.
(§6) Human orexin-A as an agonist was prepared as 1 mM stock solution in methanol:water (1:1), diluted in HBSS containing 0.1% bovine serum albumin (BSA) and 2 mM HEPES for use in the assay at a final concentration of 10 nM.
(§7) Antagonists were prepared as 10 mM stock solution in DMSO, then diluted in 96-well plates, first in DMSO, then in HBSS containing 0.1% bovine serum albumin (BSA) and 2 mM HEPES.
(§8) On the day of the assay, 100 μl of loading medium (HBSS containing 1% FCS, 2 mM HEPES, 5 mM probenecid (Sigma) and 3 μM of the fluorescent calcium indicator fluo-3 AM (1 mM stock solution in DMSO with 10% pluronic acid) (Molecular Probes) was added to each well.
(§9) The 96-well plates were incubated for 60 min at 37° C. in 5% CO2. The loading solution was then aspirated and cells were washed 3 times with 200 μl HBSS containing 2.5 mM probenecid, 0.1% BSA, 2 mM HEPES. 100 μl of that same buffer was left in each well. Within the Fluorescent Imaging Plate Reader (FLIPR, Molecular Devices), antagonists were added to the plate in a volume of 50 μl, incubated for 20 min and finally 100 μl of agonist was added. Fluorescence was measured for each well at 1 second intervals, and the height of each fluorescence peak was compared to the height of the fluorescence peak induced by 10 nM orexin-A with buffer in place of antagonist.

human orexin-2 receptor = biological target: T2, human orexin-2 receptor (Homo sapiens, UniProt O43614); experiment: Intracellular calcium measurements (FLIPR), orexin receptor antagonistic activity, OX2; assay type: cell-based; conditions: CHO cells expressing the human orexin-2 receptor, agonist 10 nM human orexin-A
T2 construct: expressed in transfected cells; host or cells: CHO cells (G418 selection)
T2 sequence (O43614 1-444): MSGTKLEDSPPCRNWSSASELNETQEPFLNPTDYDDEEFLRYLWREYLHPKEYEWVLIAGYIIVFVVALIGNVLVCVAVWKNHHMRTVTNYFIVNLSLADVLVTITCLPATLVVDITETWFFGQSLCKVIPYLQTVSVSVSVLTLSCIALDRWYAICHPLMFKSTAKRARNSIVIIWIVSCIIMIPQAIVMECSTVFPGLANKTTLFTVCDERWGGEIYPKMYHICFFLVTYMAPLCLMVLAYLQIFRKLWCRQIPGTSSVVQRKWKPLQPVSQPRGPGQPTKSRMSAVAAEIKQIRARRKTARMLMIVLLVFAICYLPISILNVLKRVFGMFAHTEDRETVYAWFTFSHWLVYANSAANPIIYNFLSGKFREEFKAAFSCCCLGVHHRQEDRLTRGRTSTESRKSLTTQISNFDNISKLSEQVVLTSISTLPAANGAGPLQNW
Procedure: as §1, §2, §3, §4, §5, §6, §7, §8, §9

IC50 (human orexin-1 receptor) [nM]	IC50 (human orexin-2 receptor) [nM]	SMILES
5370	4	CCN(Cc1ccccc1)C(=O)CN(c1ccc(OC)nc1)S(=O)(=O)c1ncccc1C [Example 207, N-Benzyl-N-ethyl-2-[(6-methoxy-pyridin-3-yl)-(3-methyl-pyridine-2-sulfonyl)-amino]-acetamide]
8640	2	CCN(Cc1cccc(C)n1)C(=O)CN(c1ccc(OC)nc1)S(=O)(=O)c1ccccc1C [Example 160, N-Ethyl-2-[(6-methoxy-pyridin-3-yl)-(toluene-2-sulfonyl)-amino]-N-(6-methyl-pyridin-2-ylmethyl)-acetamide]
> 10000	3	CCN(CCC#N)C(=O)CN(c1ccc(C)cc1)S(=O)(=O)c1ccc(C(C)(C)C)cc1 [Example 63, 2-[(4-tert-Butyl-benzenesulfonyl)-p-tolyl-amino]-N-(2-cyano-ethyl)-N-ethyl-acetamide]
354	4	CCN(Cc1ccccc1)C(=O)CN(c1ccccc1OC)S(=O)(=O)c1ccccc1C [Example 47, N-Benzyl-N-ethyl-2-[(2-methoxy-phenyl)-(toluene-2-sulfonyl)-amino]-acetamide]
840	5	CCN(Cc1cccc(O)c1)C(=O)CN(c1ccccc1OC)S(=O)(=O)c1ccccc1C [Example 158, N-Ethyl-N-(3-hydroxy-benzyl)-2-[(2-methoxy-phenyl)-(toluene-2-sulfonyl)-amino]-acetamide]
> 10000	4	CCN(Cc1ccccn1)C(=O)CN(c1ccc(OC)nc1)S(=O)(=O)c1ccccc1C [Example 163, N-Ethyl-2-[(6-methoxy-pyridin-3-yl)-(toluene-2-sulfonyl)-amino]-N-pyridin-2-ylmethyl-acetamide]
898	5	CCN(Cc1ccccc1)C(=O)CN(c1ccc(OC)nc1)S(=O)(=O)c1ccccc1C [Example 46, N-Benzyl-N-ethyl-2-[(6-methoxy-pyridin-3-yl)-(toluene-2-sulfonyl)-amino]-acetamide]
417	5	CCN(Cc1cccc(C)n1)C(=O)CN(c1ccc(C)cc1)S(=O)(=O)c1ccc(C(C)(C)C)cc1 [Example 71, 2-[(4-tert-Butyl-benzenesulfonyl)-p-tolyl-amino]-N-ethyl-N-(6-methyl-pyridin-2-ylmethyl)-acetamide]
1030	4	CCN(Cc1ccccn1)C(=O)CN(c1ccc(C)cc1)S(=O)(=O)c1ccc(C(C)(C)C)cc1 [Example 66, 2-[(4-tert-Butyl-benzenesulfonyl)-p-tolyl-amino]-N-ethyl-N-pyridin-2-ylmethyl-acetamide]
4270	4	CCN(Cc1ccccc1)C(=O)CN(c1ccccc1OC)S(=O)(=O)c1ncccc1C [Example 185, N-Benzyl-N-ethyl-2-[(2-methoxy-phenyl)-(3-methyl-pyridine-2-sulfonyl)-amino]-acetamide]
56	8	CCN(Cc1cccc(C)n1)C(=O)CN(c1cccc(N(C)C)c1)S(=O)(=O)c1ccc(C(C)(C)C)cc1 [Example 87, 2-[(4-tert-Butyl-benzenesulfonyl)-(3-dimethylamino-phenyl)-amino]-N-ethyl-N-(6-methyl-pyridin-2-ylmethyl)-acetamide]
331	5	CN(C)c1cccc(N(CC(=O)N(CCO)Cc2ccccn2)S(=O)(=O)c2ccc(C(C)(C)C)cc2)c1 [Example 111, 2-[(4-tert-Butyl-benzenesulfonyl)-(3-dimethylamino-phenyl)-amino]-N-(2-hydroxy-ethyl)-N-pyridin-2-ylmethyl-acetamide]
